Columns and labels:
Test in all cases: Test D pre-/postemergence plant response
Assay type in all cases: in vivo
[1] = test system: Italian ryegrass (Lolium multiflorum); settings: Preemergence; for Plant response rating, Ryegrass, Italian: scale 0 to 100 (0 no effect, 100 complete control)
Excerpt: (§1) Seeds of plant species selected from blackgrass (Alopecurus myosuroides), Italian ryegrass (Lolium multiflorum), winter wheat (Triticum aestivum), galium (catchweed bedstraw, Galium aparine), corn (Zea mays), large (Lg) crabgrass (Digitaria sanguinalis), giant foxtail (Setaria faberii), johnsongrass (Sorghum halepense), lambsquarters (Chenopodium album), morningglory (Ipomoea coccinea), yellow nutsedge (Cyperus esculentus), pigweed (Amaranthus retroflexus), ragweed (common ragweed, Ambrosia elatior), soybean (Glycine max), bamyardgrass (Echinochloa crus-galli), oilseed rape (Brassica napus), waterhemp (common waterhemp, Amaranthus rudis), and velvetleaf (Abutilon theophrasti) were planted into a blend of loam soil and sand and treated preemergence with test chemicals formulated in a non-phytotoxic solvent mixture which included a surfactant. At the same time, plants selected from these crop and weed species and also kochia (Kochia scoparia), wild oat (Avena fatua), and chickweed (common chickweed, Stellaria media) were planted in pots containing Redi-Earth® planting medium (Scotts Company, 14111 Scottslawn Road, Marysville, Ohio 43041) comprising spaghnum peat moss, vermiculite, wetting agent and starter nutrients and treated with postemergence applications of test chemicals formulated in the same manner. Plants ranged in height from 2 to 18 cm (1- to 4-leaf stage) for postemergence treatments. Treated plants and controls were maintained in a greenhouse for 13 to 15 days, after which time all species were compared to controls and visually evaluated. Plant response ratings, summarized in Table D, are based on a scale of 0 to 100 where 0 is no effect and 100 is complete control. A dash (-) response means no test result.

[2] = test system: barnyardgrass (Echinochloa crus-galli); settings: Preemergence; for Plant response rating, Barnyardgrass: scale 0 to 100 (0 no effect, 100 complete control)
Excerpt: as §1

[3] = test system: blackgrass (Alopecurus myosuroides); settings: Preemergence; for Plant response rating, Blackgrass: scale 0 to 100 (0 no effect, 100 complete control)
Excerpt: as §1

corn (Zea mays) = settings: Preemergence; for Plant response rating, Corn: scale 0 to 100 (0 no effect, 100 complete control)
Excerpt: as §1

[4] = test system: galium (catchweed bedstraw, Galium aparine); settings: Preemergence; for Plant response rating, Galium: scale 0 to 100 (0 no effect, 100 complete control)
Excerpt: as §1

[5] = test system: giant foxtail (Setaria faberii); settings: Preemergence; for Plant response rating, Foxtail, Giant: scale 0 to 100 (0 no effect, 100 complete control)
Excerpt: as §1

[6] = test system: johnsongrass (Sorghum halepense); settings: Preemergence; for Plant response rating, Johnsongrass: scale 0 to 100 (0 no effect, 100 complete control)
Excerpt: as §1

[7] = test system: lambsquarters (Chenopodium album); settings: Preemergence; for Plant response rating, Lambsquarters: scale 0 to 100 (0 no effect, 100 complete control)
Excerpt: as §1

[8] = test system: large (Lg) crabgrass (Digitaria sanguinalis); settings: Preemergence; for Plant response rating, Crabgrass, Large: scale 0 to 100 (0 no effect, 100 complete control)
Excerpt: as §1

[9] = test system: morningglory (Ipomoea coccinea); settings: Preemergence; for Plant response rating, Morningglory: scale 0 to 100 (0 no effect, 100 complete control)
Excerpt: as §1

[10] = test system: oilseed rape (Brassica napus); settings: Preemergence; for Plant response rating, Oilseed Rape: scale 0 to 100 (0 no effect, 100 complete control)
Excerpt: as §1

[11] = test system: pigweed (Amaranthus retroflexus); settings: Preemergence; for Plant response rating, Pigweed: scale 0 to 100 (0 no effect, 100 complete control)
Excerpt: as §1

[12] = test system: ragweed (common ragweed, Ambrosia elatior); settings: Preemergence; for Plant response rating, Ragweed: scale 0 to 100 (0 no effect, 100 complete control)
Excerpt: as §1

soybean (Glycine max) = settings: Preemergence; for Plant response rating, Soybean: scale 0 to 100 (0 no effect, 100 complete control)
Excerpt: as §1

[13] = test system: velvetleaf (Abutilon theophrasti); settings: Preemergence; for Plant response rating, Velvetleaf: scale 0 to 100 (0 no effect, 100 complete control)
Excerpt: as §1

[14] = test system: waterhemp (common waterhemp, Amaranthus rudis); settings: Preemergence; for Plant response rating, Waterhemp: scale 0 to 100 (0 no effect, 100 complete control)
Excerpt: as §1

[15] = test system: winter wheat (Triticum aestivum); settings: Preemergence; for Plant response rating, Wheat: scale 0 to 100 (0 no effect, 100 complete control)
Excerpt: as §1

[16] = test system: yellow nutsedge (Cyperus esculentus); settings: Preemergence; for Plant response rating, Nutsedge, Yellow: scale 0 to 100 (0 no effect, 100 complete control)
Excerpt: as §1

Compound: COc1cccc(Oc2ncc(Cl)cn2)c1-c1cc(C(F)(F)F)no1 [Compound 104]
- Plant response rating (scale 0 to 100), Ryegrass, Italian ([1]; 125 g ai/ha): 5
- Plant response rating, Ryegrass, Italian ([1]; 16 g ai/ha): 0
- Plant response rating, Ryegrass, Italian ([1]; 31 g ai/ha): 0
- Plant response rating, Ryegrass, Italian ([1]; 62 g ai/ha): 0
- Plant response rating (scale 0 to 100), Barnyardgrass ([2]; 62 g ai/ha): 25
- Plant response rating (scale 0 to 100), Barnyardgrass ([2]; 125 g ai/ha): 70
- Plant response rating, Barnyardgrass ([2]; 16 g ai/ha): 0
- Plant response rating, Barnyardgrass ([2]; 31 g ai/ha): 10
- Plant response rating (scale 0 to 100), Blackgrass ([3]; 125 g ai/ha): 30
- Plant response rating, Blackgrass ([3]; 16 g ai/ha): 0
- Plant response rating, Blackgrass ([3]; 31 g ai/ha): 0
- Plant response rating, Blackgrass ([3]; 62 g ai/ha): 0
- Plant response rating (scale 0 to 100), Corn (corn (Zea mays); 125 g ai/ha): 0
- Plant response rating, Corn (corn (Zea mays); 16 g ai/ha): 0
- Plant response rating, Corn (corn (Zea mays); 31 g ai/ha): 0
- Plant response rating, Corn (corn (Zea mays); 62 g ai/ha): 0
- Plant response rating (scale 0 to 100), Galium ([4]; 125 g ai/ha): 70
- Plant response rating, Galium ([4]; 16 g ai/ha): 90
- Plant response rating, Galium ([4]; 31 g ai/ha): 80
- Plant response rating, Galium ([4]; 62 g ai/ha): 75
- Plant response rating (scale 0 to 100), Foxtail, Giant ([5]; 125 g ai/ha): 100
- Plant response rating, Foxtail, Giant ([5]; 16 g ai/ha): 30
- Plant response rating, Foxtail, Giant ([5]; 31 g ai/ha): 80
- Plant response rating, Foxtail, Giant ([5]; 62 g ai/ha): 90
- Plant response rating (scale 0 to 100), Johnsongrass ([6]; 125 g ai/ha): 65
- Plant response rating, Johnsongrass ([6]; 16 g ai/ha): 5
- Plant response rating, Johnsongrass ([6]; 31 g ai/ha): 20
- Plant response rating, Johnsongrass ([6]; 62 g ai/ha): 15
- Plant response rating (scale 0 to 100), Lambsquarters ([7]; 125 g ai/ha): 90
- Plant response rating, Lambsquarters ([7]; 16 g ai/ha): 65
- Plant response rating, Lambsquarters ([7]; 31 g ai/ha): 80
- Plant response rating, Lambsquarters ([7]; 62 g ai/ha): 90
- Plant response rating (scale 0 to 100), Crabgrass, Large ([8]; 125 g ai/ha): 100
- Plant response rating, Crabgrass, Large ([8]; 16 g ai/ha): 65
- Plant response rating, Crabgrass, Large ([8]; 31 g ai/ha): 85
- Plant response rating, Crabgrass, Large ([8]; 62 g ai/ha): 98
- Plant response rating (scale 0 to 100), Morningglory ([9]; 125 g ai/ha): 25
- Plant response rating, Morningglory ([9]; 16 g ai/ha): 5
- Plant response rating, Morningglory ([9]; 31 g ai/ha): 5
- Plant response rating, Morningglory ([9]; 62 g ai/ha): 25
- Plant response rating (scale 0 to 100), Oilseed Rape ([10]; 125 g ai/ha): 50
- Plant response rating, Oilseed Rape ([10]; 16 g ai/ha): 0
- Plant response rating, Oilseed Rape ([10]; 31 g ai/ha): 0
- Plant response rating, Oilseed Rape ([10]; 62 g ai/ha): 30
- Plant response rating (scale 0 to 100), Pigweed ([11]; 125 g ai/ha): 100
- Plant response rating, Pigweed ([11]; 16 g ai/ha): 100
- Plant response rating, Pigweed ([11]; 31 g ai/ha): 100
- Plant response rating, Pigweed ([11]; 62 g ai/ha): 100
- Plant response rating (scale 0 to 100), Ragweed ([12]; 125 g ai/ha): 60
- Plant response rating, Ragweed ([12]; 16 g ai/ha): 40
- Plant response rating, Ragweed ([12]; 31 g ai/ha): 25
- Plant response rating, Ragweed ([12]; 62 g ai/ha): 55
- Plant response rating (scale 0 to 100), Soybean (soybean (Glycine max); 125 g ai/ha): 25
- Plant response rating, Soybean (soybean (Glycine max); 16 g ai/ha): 10
- Plant response rating, Soybean (soybean (Glycine max); 31 g ai/ha): 20
- Plant response rating, Soybean (soybean (Glycine max); 62 g ai/ha): 25
- Plant response rating (scale 0 to 100), Velvetleaf ([13]; 125 g ai/ha): 65
- Plant response rating, Velvetleaf ([13]; 16 g ai/ha): 25
- Plant response rating, Velvetleaf ([13]; 31 g ai/ha): 50
- Plant response rating, Velvetleaf ([13]; 62 g ai/ha): 70
- Plant response rating (scale 0 to 100), Waterhemp ([14]; 125 g ai/ha): 100
- Plant response rating, Waterhemp ([14]; 16 g ai/ha): 100
- Plant response rating, Waterhemp ([14]; 31 g ai/ha): 100
- Plant response rating, Waterhemp ([14]; 62 g ai/ha): 100
- Plant response rating (scale 0 to 100), Wheat ([15]; 125 g ai/ha): 5
- Plant response rating, Wheat ([15]; 16 g ai/ha): 0
- Plant response rating, Wheat ([15]; 31 g ai/ha): 0
- Plant response rating, Wheat ([15]; 62 g ai/ha): 5
- Plant response rating (scale 0 to 100), Nutsedge, Yellow ([16]; 125 g ai/ha): 0
- Plant response rating, Nutsedge, Yellow ([16]; 16 g ai/ha): 0
- Plant response rating, Nutsedge, Yellow ([16]; 31 g ai/ha): 0
- Plant response rating, Nutsedge, Yellow ([16]; 62 g ai/ha): 0
